pKi: −log10 of the molar value.
What was measured:
[1] = Metabolic stability in human liver microsomes (Human MST); assay type: in vitro ADME; conditions: pooled human liver microsomes, pH 7.6; human liver microsomes 1 mg/mL, 1 μM compound, NADPH 1 mM, 37° C.; read-out: Human MST t1/2
Description: Assessment of Metabolic Stability in Human Liver Microsomes (Human MST) The metabolic stability of the compounds according to the invention may be investigated as follows: The metabolic degradation of the test compound is assayed at 37° C. with pooled human liver microsomes. The final incubation volume of 100 μL per time point contains TRIS buffer pH 7.6 at room temperature (0.1 M), MgCl2 (5 mM), microsomal protein (1 mg/mL) and the test compound at a final concentration of 1 μM. Following a short pre-incubation period at 37° C., the reactions are initiated by addition of beta-nicotinamide adenine dinucleotide phosphate, reduced form (NADPH, 1 mM), and terminated by transferring an aliquot into solvent after different time points. After centrifugation (10000 g, 5 min), an aliquot of the supernatant is assayed by LCMS/MS for the amount of parent compound. The half-life (t½) is determined by the slope of the semi-logarithmic plot of the concentration-time profile.

[2] = target: T1, human GABAA α5β3γ2s receptor (Homo sapiens, UniProt P18507+P31644); assay: Assay A: in vitro inhibition of 3H-flumazenil binding, HEK cells expressing human GABAA α5β3γ2s receptor; conditions: 3H-flumazenil 1 nM, HEK-293 membranes, 40 min at 2° C.; Ki from IC50 by Cheng and Prusoff
T1 sequence (P18507 1-475): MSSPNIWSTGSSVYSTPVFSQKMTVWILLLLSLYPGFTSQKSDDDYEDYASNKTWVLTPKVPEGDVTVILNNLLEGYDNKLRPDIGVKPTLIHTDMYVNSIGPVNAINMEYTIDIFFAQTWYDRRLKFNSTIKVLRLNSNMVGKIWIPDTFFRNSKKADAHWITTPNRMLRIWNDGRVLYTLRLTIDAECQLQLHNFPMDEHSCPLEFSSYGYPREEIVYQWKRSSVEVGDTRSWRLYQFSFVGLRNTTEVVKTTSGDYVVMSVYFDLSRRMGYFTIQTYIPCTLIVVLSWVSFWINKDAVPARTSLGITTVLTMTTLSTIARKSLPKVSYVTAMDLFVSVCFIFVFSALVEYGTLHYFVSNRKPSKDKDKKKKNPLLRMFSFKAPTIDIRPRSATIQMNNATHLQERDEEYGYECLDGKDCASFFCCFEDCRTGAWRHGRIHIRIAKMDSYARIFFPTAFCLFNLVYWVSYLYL
T1 sequence (P31644 1-462): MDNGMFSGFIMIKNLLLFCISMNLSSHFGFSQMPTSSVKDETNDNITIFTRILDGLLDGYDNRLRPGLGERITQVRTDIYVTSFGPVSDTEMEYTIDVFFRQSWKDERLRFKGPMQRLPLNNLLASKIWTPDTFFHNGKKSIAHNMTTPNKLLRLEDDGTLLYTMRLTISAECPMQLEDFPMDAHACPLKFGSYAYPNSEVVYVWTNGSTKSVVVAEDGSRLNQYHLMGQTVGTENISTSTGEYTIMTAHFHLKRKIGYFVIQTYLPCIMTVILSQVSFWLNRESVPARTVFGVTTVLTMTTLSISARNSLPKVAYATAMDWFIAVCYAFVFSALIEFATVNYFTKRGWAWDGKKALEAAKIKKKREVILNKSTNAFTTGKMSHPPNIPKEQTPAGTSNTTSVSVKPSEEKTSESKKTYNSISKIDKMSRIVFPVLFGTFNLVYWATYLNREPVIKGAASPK
Description: HEK-293 cell lines with stable expression of recombinant human GABAA α5β3γ2s receptors (plasmid H46/E9/B10) are seeded in T175 polystyrene flasks or roller bottles (1700 cm^2, Fisher Scientific CCI-431191), and cultured (37 C, 5% CO˜) in Dulbecco's Modified Eagle Medium (DMEM) with GlutaMAX™ supplemented with 10% fetal bovine serum and one or both of the following antibiotics: hygromycin B ([…]; γ2 subunit) or G418 (0.5 mg/ml; […]).
When the cultures reach confluency, the DMEM is removed and the cells are washed (10 ml for T175 flasks; 50 ml for roller bottles) once in Dulbecco's Phosphate Buffered Saline (DPBS). Following addition of DPBS to the cultures (10 ml for T175 flasks; 100 ml for roller bottles) for approximately 5 min cells are easily detached from the surface by shaking or tapping the flask gently. The cell suspension is transferred to Falcon tubes and centrifuged at 23,500×g for 10 min at 2° C. The pellet is washed once in 15 ml Tris-citrate buffer (50 mM, pH 7.1) using an Ultra-Turrax homogenizer and centrifuged at 2° C. for 10 min at 27,000×g. The washed pellet is re-suspended in 15 ml Tris-citrate buffer and frozen at −80° C. until the day of the binding experiment.
On the day of the experiment the cell membrane preparation is thawed and centrifuged at 2° C. for 10 min at 27,000×g. The pellet is re-suspended, using an Ultra-Turrax homogenizer in Tris-citrate buffer, to 15-50 µg protein per assay and then used for binding assays.
Non-specific binding is determined using clonazepam (1 μM, final concentration).
All dilutions of test compounds and incubation of assay are performed in glass vials/96-vial plates. […] Compounds are dissolved in 100% DMSO (10 mM stock), diluted in 48% ethanol-water, and tested in triplicate in serial 1:3 or 1:10 dilutions. When screening large numbers of compounds only one concentration of each compound is tested in single wells. Reference compounds are not included routinely, but for each experiment performed total and nonspecific binding is compared to data obtained during validation of the assay.
Binding is either terminated by rapid filtration onto
1) Whatman GF/C glass fibre filters using a Brandel Cell harvester, followed by 5 washes with 1 ml ice-cold buffer or onto 2) UniFilter GF/C glass fibre filter plates using a Tomtec cell harvester, followed by washing with approximately 5 ml ice-cold buffer.
The amount of radioactivity on the filters is determined by conventional liquid scintillation counting using a
1) Tri-Garb™ counter (PerkinElmer Life and Analytical Sciences) for separate large filters or
2) Topcount™ counter (PerkinElmer Life and Analytical Sciences) for 96-well filter plates. Specific binding is total binding minus non-specific binding.
For screening purposes n is set to 1. The IC50 value is calculated from the concentration response curves by the non-linear regression method using the curve-fitting program GraphPad Prism. […]

| half-life at 1 μM [1] [h] | pKi [2] | SMILES |
| --- | --- | --- |
| > 2.17 | 9.85 | Cc1nnn(-c2ccc(C(F)F)cc2)c1COc1ccc(-n2cnc(C(C)(C)O)c2)nn1 [Example 39, 2-{1-[6-({1-[4-(difluoromethyl)phenyl]-4-methyl-1H-1,2,3-triazol-5-yl}methoxy)pyridazin-3-yl]-1H-imidazol-4-yl}propan-2-ol] |
| > 2.17 | 9.80 | Cc1nnn(-c2ccc(C(F)F)cc2)c1COc1ccc(-n2cnc(C(C)O)c2)nn1 (stereo not shown) [Example 40] |

Reference: patent US10941137B2, “Difluoromethyl-phenyl triazoles” (Boehringer Ingelheim International GmbH, priority 2018, dated 2021)
